Read-outs that look alike come from different tables or passages of the source.
Legend:
[1] = biological target: CDK1/Cyclin E1 (Homo sapiens, UniProt P06493); test: NanoBRET live-cell target engagement, CDK1-NanoLuc/Cyclin E1 in HEK-293; format: binding; conditions: 10µM
[2] = biological target: CDK3/Cyclin E1 (Homo sapiens, UniProt Q00526); test: NanoBRET live-cell target engagement, CDK3-NanoLuc/Cyclin E1 in HEK-293; format: binding
[3] = biological target: CDK4/Cyclin D1 (Homo sapiens, UniProt P11802); test: NanoBRET live-cell target engagement, NanoLuc-CDK4/Cyclin D1 in HEK-293; format: binding; conditions: 10µM
[4] = biological target: CDK5/CDK5R1 (Homo sapiens, UniProt Q00535); test: NanoBRET live-cell target engagement, CDK5-NanoLuc/CDK5R1 in HEK-293; format: binding; conditions: 10µM
[5] = biological target: CDK6/Cyclin D1 (Homo sapiens, UniProt Q00534); test: NanoBRET live-cell target engagement, NanoLuc-CDK6/Cyclin D1 in HEK-293; format: binding; conditions: 10µM
[6] = biological target: CDK7 (Homo sapiens, UniProt P50613); test: NanoBRET live-cell target engagement, NanoLuc-CDK7 in HEK-293; format: binding; conditions: 10µM
[7] = biological target: CDK8/Cyclin C (Homo sapiens, UniProt P49336); test: NanoBRET live-cell target engagement, NanoLuc-CDK8/Cyclin C in HEK-293; format: binding; conditions: 10µM
[8] = biological target: CDK9/Cyclin K (Homo sapiens, UniProt P50750); test: NanoBRET live-cell target engagement, NanoLuc-CDK9/Cyclin K in HEK-293; format: binding; conditions: 10µM
[9] = biological target: T1, CDK11A/Cyclin L2 (Homo sapiens, UniProt Q9UQ88); test: NanoBRET live-cell target engagement, CDK11A-NanoLuc/Cyclin L2 in HEK-293; format: binding; conditions: 10µM
T1 sequence (Q9UQ88 1-783): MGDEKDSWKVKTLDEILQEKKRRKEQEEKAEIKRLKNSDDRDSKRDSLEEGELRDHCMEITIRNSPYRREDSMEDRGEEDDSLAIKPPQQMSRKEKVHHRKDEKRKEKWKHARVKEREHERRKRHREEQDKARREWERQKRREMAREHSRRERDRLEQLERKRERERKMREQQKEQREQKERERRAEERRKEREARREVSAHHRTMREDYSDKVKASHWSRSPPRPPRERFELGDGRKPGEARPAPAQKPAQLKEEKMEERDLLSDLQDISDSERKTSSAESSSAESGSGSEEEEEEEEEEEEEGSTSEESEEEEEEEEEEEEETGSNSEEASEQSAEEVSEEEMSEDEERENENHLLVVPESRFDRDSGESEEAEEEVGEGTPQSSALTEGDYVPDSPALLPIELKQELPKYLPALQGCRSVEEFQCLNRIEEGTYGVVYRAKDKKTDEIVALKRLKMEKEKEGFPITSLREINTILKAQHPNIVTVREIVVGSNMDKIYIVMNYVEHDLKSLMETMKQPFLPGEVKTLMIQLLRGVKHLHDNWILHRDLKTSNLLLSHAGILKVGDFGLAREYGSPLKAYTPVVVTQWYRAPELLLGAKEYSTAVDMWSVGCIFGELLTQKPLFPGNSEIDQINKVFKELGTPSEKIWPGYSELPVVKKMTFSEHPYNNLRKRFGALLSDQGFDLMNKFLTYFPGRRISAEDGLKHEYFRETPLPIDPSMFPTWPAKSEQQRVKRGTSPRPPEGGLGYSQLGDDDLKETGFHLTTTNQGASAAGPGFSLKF

[10] = biological target: CDK11B/Cyclin L2 (Homo sapiens, UniProt P21127); test: NanoBRET live-cell target engagement, CDK11B-NanoLuc/Cyclin L2 in HEK-293; format: binding; conditions: 10µM
[11] = biological target: CDK12/Cyclin K (Homo sapiens, UniProt Q9NYV4); test: NanoBRET live-cell target engagement, CDK12-NanoLuc/Cyclin K in HEK-293; format: binding; conditions: 10µM
[12] = biological target: CDK13/Cyclin K (Homo sapiens, UniProt Q14004); test: NanoBRET live-cell target engagement, CDK13-NanoLuc/Cyclin K in HEK-293; format: binding; conditions: 10µM
[13] = biological target: CDK14/Cyclin Y (Homo sapiens, UniProt O94921); test: NanoBRET live-cell target engagement, CDK14-NanoLuc/Cyclin Y in HEK-293; format: binding; conditions: 10µM
[14] = biological target: CDK15/Cyclin Y (Homo sapiens, UniProt Q96Q40); test: NanoBRET live-cell target engagement, NanoLuc-CDK15/Cyclin Y in HEK-293; format: binding; conditions: 10µM
[15] = biological target: CDK16/Cyclin Y (Homo sapiens, UniProt Q00536); test: NanoBRET live-cell target engagement, CDK16-NanoLuc/Cyclin Y in HEK-293; format: binding; conditions: 10µM
[16] = biological target: CDK17/Cyclin Y (Homo sapiens, UniProt Q00537); test: NanoBRET live-cell target engagement, CDK17-NanoLuc/Cyclin Y in HEK-293; format: binding; conditions: 10µM
[17] = biological target: CDK18/Cyclin Y (Homo sapiens, UniProt Q07002); test: NanoBRET live-cell target engagement, CDK18-NanoLuc/Cyclin Y in HEK-293; format: binding; conditions: 10µM
[18] = biological target: CDK20/Cyclin H (Homo sapiens, UniProt Q8IZL9); test: NanoBRET live-cell target engagement, NanoLuc-CDK20/Cyclin H in HEK-293; format: binding; conditions: 10µM
[19] = biological target: CDK19/Cyclin C (Homo sapiens, UniProt Q9BWU1); test: NanoBRET live-cell target engagement, NanoLuc-CDK19/Cyclin C in HEK-293; conditions: 10µM
[20] = biological target: CDK10/Cyclin L2 (Homo sapiens, UniProt Q15131); test: NanoBRET live-cell target engagement, CDK10-NanoLuc/Cyclin L2 in HEK-293; conditions: 10µM
CDK10/Cyclin L2, sequence (Q15131 whole entry): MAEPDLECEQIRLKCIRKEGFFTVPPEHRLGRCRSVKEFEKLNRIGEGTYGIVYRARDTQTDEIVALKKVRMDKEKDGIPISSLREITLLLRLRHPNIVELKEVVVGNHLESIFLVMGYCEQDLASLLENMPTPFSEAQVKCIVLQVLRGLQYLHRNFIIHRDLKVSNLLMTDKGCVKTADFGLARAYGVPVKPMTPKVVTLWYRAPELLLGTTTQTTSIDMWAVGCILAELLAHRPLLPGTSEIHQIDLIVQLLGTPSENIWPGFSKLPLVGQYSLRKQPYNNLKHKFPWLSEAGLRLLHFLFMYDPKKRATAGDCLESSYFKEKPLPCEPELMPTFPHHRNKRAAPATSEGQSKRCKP

CDK13/Cyclin K, sequence (O75909 whole entry): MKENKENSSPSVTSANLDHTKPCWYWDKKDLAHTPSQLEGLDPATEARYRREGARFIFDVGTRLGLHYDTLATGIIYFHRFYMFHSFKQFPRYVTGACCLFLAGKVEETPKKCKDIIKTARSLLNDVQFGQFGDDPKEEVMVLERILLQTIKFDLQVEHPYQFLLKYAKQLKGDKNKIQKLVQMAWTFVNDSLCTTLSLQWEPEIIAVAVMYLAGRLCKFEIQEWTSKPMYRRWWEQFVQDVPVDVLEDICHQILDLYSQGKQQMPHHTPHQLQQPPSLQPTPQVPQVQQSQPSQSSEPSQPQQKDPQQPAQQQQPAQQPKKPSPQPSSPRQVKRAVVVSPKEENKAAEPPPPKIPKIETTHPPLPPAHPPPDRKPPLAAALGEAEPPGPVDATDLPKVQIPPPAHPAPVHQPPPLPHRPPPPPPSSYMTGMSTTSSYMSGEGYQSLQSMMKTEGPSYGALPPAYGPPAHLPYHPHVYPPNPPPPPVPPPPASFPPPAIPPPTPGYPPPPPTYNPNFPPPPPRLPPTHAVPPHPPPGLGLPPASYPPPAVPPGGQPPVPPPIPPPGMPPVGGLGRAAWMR
CDK13/Cyclin K, sequence (Q14004 other isoform, or with tags, fused parts or gaps): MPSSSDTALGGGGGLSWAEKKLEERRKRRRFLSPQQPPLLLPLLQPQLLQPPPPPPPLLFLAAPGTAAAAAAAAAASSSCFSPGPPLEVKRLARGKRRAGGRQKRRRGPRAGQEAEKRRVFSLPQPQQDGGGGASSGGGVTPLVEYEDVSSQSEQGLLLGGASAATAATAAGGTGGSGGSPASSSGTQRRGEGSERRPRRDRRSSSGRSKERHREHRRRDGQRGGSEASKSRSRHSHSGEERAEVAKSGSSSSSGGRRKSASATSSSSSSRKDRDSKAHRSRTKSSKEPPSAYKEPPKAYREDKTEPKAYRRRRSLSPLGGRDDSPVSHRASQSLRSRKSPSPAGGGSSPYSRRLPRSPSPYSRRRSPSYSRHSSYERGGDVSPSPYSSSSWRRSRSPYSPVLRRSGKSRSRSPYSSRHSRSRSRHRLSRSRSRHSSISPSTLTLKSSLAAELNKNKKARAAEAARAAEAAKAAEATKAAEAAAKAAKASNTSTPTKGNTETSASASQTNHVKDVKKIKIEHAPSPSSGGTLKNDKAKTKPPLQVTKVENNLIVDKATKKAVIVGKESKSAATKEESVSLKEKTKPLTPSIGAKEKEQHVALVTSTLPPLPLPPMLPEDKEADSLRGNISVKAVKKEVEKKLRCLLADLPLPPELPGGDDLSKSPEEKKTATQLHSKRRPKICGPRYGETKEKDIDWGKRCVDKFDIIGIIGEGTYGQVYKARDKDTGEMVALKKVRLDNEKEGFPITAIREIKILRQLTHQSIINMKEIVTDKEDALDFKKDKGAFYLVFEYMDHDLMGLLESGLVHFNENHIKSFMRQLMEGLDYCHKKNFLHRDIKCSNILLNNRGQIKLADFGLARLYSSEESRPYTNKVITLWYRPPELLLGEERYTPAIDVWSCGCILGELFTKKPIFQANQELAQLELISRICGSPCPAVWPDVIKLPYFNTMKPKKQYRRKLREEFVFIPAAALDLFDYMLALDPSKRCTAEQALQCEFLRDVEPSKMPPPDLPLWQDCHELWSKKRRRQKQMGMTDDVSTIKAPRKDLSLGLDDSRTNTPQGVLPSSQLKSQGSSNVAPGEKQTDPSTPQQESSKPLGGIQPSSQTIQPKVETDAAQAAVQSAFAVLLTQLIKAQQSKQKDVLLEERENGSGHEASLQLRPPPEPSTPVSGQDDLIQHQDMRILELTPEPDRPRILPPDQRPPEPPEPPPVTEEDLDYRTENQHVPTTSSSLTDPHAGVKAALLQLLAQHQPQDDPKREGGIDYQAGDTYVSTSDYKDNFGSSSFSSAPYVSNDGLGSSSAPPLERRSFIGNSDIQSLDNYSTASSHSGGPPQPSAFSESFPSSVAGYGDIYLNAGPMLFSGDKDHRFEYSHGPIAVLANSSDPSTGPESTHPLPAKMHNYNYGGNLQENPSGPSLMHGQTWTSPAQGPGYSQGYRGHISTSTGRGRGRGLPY
CDK15/Cyclin Y, sequence (Q96Q40 whole entry): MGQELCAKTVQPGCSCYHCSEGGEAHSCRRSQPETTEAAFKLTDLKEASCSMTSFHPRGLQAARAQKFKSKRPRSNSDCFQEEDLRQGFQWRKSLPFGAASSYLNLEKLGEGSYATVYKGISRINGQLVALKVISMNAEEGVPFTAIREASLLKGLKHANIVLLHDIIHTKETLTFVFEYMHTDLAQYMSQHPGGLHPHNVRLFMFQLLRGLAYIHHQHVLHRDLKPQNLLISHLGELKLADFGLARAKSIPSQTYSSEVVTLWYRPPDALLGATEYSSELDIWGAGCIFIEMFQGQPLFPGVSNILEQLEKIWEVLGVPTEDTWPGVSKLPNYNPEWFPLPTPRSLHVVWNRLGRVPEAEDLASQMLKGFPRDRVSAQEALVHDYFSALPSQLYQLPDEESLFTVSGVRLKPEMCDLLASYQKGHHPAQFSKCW
CDK15/Cyclin Y, sequence (Q8ND76 whole entry partner): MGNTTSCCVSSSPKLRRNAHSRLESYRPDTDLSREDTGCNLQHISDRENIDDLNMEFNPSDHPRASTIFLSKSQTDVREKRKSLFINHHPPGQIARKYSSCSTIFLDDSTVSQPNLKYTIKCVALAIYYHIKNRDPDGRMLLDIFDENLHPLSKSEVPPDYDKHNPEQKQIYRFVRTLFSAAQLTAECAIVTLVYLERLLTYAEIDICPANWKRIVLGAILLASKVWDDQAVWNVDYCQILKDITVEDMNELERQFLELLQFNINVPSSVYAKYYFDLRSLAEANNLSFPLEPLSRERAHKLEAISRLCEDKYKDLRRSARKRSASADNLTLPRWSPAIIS
CDK7, sequence (P50613 whole entry): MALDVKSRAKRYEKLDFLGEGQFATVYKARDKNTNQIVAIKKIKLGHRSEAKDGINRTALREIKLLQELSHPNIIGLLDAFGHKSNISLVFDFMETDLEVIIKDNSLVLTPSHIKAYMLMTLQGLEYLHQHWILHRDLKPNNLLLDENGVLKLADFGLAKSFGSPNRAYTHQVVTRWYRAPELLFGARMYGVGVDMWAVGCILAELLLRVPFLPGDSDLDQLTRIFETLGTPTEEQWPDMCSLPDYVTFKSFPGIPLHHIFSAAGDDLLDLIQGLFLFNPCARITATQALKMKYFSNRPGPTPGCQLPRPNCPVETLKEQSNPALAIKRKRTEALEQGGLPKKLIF
CDK14/Cyclin Y, sequence (O94921 whole entry): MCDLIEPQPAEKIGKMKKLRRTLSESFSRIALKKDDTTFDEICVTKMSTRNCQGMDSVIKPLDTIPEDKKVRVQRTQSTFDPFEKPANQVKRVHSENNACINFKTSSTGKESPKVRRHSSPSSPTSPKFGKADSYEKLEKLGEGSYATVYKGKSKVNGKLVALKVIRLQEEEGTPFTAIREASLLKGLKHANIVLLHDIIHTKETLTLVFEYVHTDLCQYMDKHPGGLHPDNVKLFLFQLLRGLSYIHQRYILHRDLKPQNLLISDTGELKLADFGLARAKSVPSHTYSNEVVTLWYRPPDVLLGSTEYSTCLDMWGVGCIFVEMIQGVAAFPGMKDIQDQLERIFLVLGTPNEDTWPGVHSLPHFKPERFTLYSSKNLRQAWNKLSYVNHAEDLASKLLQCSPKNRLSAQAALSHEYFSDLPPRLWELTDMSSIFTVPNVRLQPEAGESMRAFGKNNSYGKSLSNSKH
CDK14/Cyclin Y, sequence (Q8ND76 whole entry partner): as the sequence (Q8ND76 whole entry partner) above
CDK9/Cyclin K, sequence (P50750 whole entry): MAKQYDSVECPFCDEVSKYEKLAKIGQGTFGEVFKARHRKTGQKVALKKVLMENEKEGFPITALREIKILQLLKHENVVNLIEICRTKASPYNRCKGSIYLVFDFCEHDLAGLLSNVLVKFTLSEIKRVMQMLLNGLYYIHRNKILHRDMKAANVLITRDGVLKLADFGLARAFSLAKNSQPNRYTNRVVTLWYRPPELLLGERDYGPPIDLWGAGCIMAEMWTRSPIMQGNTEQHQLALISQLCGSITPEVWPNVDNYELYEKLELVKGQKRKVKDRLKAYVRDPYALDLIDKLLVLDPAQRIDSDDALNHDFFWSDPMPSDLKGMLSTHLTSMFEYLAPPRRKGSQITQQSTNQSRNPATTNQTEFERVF
CDK9/Cyclin K, sequence (O75909 whole entry partner): as the sequence (O75909 whole entry) above
CDK18/Cyclin Y, sequence (Q07002 whole entry): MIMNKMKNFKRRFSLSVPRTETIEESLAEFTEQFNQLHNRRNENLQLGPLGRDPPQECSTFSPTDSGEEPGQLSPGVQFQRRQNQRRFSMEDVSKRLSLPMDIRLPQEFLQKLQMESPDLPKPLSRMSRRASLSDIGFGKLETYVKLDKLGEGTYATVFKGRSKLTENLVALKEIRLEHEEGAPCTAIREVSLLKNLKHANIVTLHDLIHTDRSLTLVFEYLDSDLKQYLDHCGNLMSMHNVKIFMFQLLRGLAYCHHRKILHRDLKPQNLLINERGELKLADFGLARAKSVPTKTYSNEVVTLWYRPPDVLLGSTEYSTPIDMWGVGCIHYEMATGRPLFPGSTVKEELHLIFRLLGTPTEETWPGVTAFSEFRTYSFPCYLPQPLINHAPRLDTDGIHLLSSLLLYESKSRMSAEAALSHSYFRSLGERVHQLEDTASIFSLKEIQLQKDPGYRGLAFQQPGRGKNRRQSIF
CDK18/Cyclin Y, sequence (Q8ND76 whole entry partner): as the sequence (Q8ND76 whole entry partner) above

O=C1NC(=NCc2cccs2)S/C1=C\c1ccc2ncccc2c1 [RO-3306]
CDK1/E1 Inhibition at 10µM (%) ([1]; average of experiments): 81.7%
CDK1/E1 Inhibition at 10µM (%) ([1]; independent experiment 1): 78.1%
CDK1/E1 Inhibition at 10µM (%) ([1]; independent experiment 2): 85.3%
CDK3/E1 Inhibition at 10µM (%) ([2]; average of experiments): 74.0%
CDK3/E1 Inhibition at 10µM (%) ([2]; independent experiment 1): 51.6%
CDK3/E1 Inhibition at 10µM (%) ([2]; independent experiment 2): 96.3%
IC50 ([2]; independent experiment 1, read-out: CDK3/E1 IC50): 140 nM
IC50 ([2]; independent experiment 2, read-out: CDK3/E1 IC50): 280 nM
IC50 ([2]; independent experiment 3, read-out: CDK3/E1 IC50): 184 nM
IC50 ([2]; live HEK-293, 2 h, mean ± S.E.M. (n=3) or mean (n=2), read-out: IC50 for CDK/cyclin complexes, CDK3/E1): 200 nM
CDK4/D1 Inhibition at 10µM (%) ([3]; average of experiments): -19.5%
CDK4/D1 Inhibition at 10µM (%) ([3]; independent experiment 1): 11.3%
CDK4/D1 Inhibition at 10µM (%) ([3]; independent experiment 2): -50.4%
CDK5/CDK5R1 Inhibition at 10µM (%) ([4]; average of experiments): -1.8%
CDK5/CDK5R1 Inhibition at 10µM (%) ([4]; independent experiment 1): 10.9%
CDK5/CDK5R1 Inhibition at 10µM (%) ([4]; independent experiment 2): -14.5%
CDK6/D1 Inhibition at 10µM (%) ([5]; average of experiments): 15.6%
CDK6/D1 Inhibition at 10µM (%) ([5]; independent experiment 1): 22.8%
CDK6/D1 Inhibition at 10µM (%) ([5]; independent experiment 2): 8.5%
CDK7 Inhibition at 10µM (%) ([6]; average of experiments): 57.8%
CDK7 Inhibition at 10µM (%) ([6]; independent experiment 1): 37.4%
CDK7 Inhibition at 10µM (%) ([6]; independent experiment 2): 78.3%
CDK8/C Inhibition at 10µM (%) ([7]; average of experiments): 17.8%
CDK8/C Inhibition at 10µM (%) ([7]; independent experiment 1): 15.7%
CDK8/C Inhibition at 10µM (%) ([7]; independent experiment 2): 20.0%
CDK9/K Inhibition at 10µM (%) ([8]; average of experiments): 29.2%
CDK9/K Inhibition at 10µM (%) ([8]; independent experiment 1): 10.0%
CDK9/K Inhibition at 10µM (%) ([8]; independent experiment 2): 48.5%
CDK11a/L2 Inhibition at 10µM (%) ([9]; average of experiments): 25.4%
CDK11a/L2 Inhibition at 10µM (%) ([9]; independent experiment 1): 51.4%
CDK11a/L2 Inhibition at 10µM (%) ([9]; independent experiment 2): -0.5%
CDK11b/L2 Inhibition at 10µM (%) ([10]; average of experiments): 10.3%
CDK11b/L2 Inhibition at 10µM (%) ([10]; independent experiment 1): 7.5%
CDK11b/L2 Inhibition at 10µM (%) ([10]; independent experiment 2): 13.1%
CDK12/K Inhibition at 10µM (%) ([11]; average of experiments): 10.6%
CDK12/K Inhibition at 10µM (%) ([11]; independent experiment 1): 8.2%
CDK12/K Inhibition at 10µM (%) ([11]; independent experiment 2): 13.0%
CDK13/K Inhibition at 10µM (%) ([12]; average of experiments): 7.2%
CDK13/K Inhibition at 10µM (%) ([12]; independent experiment 1): 3.3%
CDK13/K Inhibition at 10µM (%) ([12]; independent experiment 2): 11.1%
CDK14/Y Inhibition at 10µM (%) ([13]; average of experiments): 0.0648%
CDK14/Y Inhibition at 10µM (%) ([13]; independent experiment 1): 3.4%
CDK14/Y Inhibition at 10µM (%) ([13]; independent experiment 2): -3.3%
CDK15/Y Inhibition at 10µM (%) ([14]; average of experiments): 22.3%
CDK15/Y Inhibition at 10µM (%) ([14]; independent experiment 1): 12.8%
CDK15/Y Inhibition at 10µM (%) ([14]; independent experiment 2): 31.8%
CDK16/Y Inhibition at 10µM (%) ([15]; independent experiment 1): 47.1%
CDK16/Y Inhibition at 10µM (%) ([15]; independent experiment 2): 19.7%
CDK17/Y Inhibition at 10µM (%) ([16]; average of experiments): 40.0%
CDK17/Y Inhibition at 10µM (%) ([16]; independent experiment 1): 13.8%
CDK17/Y Inhibition at 10µM (%) ([16]; independent experiment 2): 66.1%
CDK18/Y Inhibition at 10µM (%) ([17]; average of experiments): 16.9%
CDK18/Y Inhibition at 10µM (%) ([17]; independent experiment 1): 3.1%
CDK18/Y Inhibition at 10µM (%) ([17]; independent experiment 2): 30.7%
CDK20/H Inhibition at 10µM (%) ([18]; independent experiment 1): 63.6%
CDK20/H Inhibition at 10µM (%) ([18]; independent experiment 2): 19.4%
CDK19/C Inhibition at 10µM (%) ([19]; average of experiments): 19.5%
CDK19/C Inhibition at 10µM (%) ([19]; independent experiment 1): 15.2%
CDK19/C Inhibition at 10µM (%) ([19]; independent experiment 2): 23.8%
CDK10/L2 Inhibition at 10µM (%) ([20]; average of experiments): 22.6%
CDK10/L2 Inhibition at 10µM (%) ([20]; independent experiment 1): 6.5%
CDK10/L2 Inhibition at 10µM (%) ([20]; independent experiment 2): 38.7%

Source: publication PMC7265341, “Quantifying CDK inhibitor selectivity in live cells” (Nature Communications, 2020)
